Earlier results in patent US20200268761A1 (CIPLA LIMITED, priority 2017, published 2020).

Key:
p-glycoprotein = p-glycoprotein (Homo sapiens, UniProt P08183)
CYP3A4 = CYP3A4 (Homo sapiens, UniProt P08684); settings: major drug metabolizing enzyme
CYP3A4, sequence (P08684 whole entry, species assumed): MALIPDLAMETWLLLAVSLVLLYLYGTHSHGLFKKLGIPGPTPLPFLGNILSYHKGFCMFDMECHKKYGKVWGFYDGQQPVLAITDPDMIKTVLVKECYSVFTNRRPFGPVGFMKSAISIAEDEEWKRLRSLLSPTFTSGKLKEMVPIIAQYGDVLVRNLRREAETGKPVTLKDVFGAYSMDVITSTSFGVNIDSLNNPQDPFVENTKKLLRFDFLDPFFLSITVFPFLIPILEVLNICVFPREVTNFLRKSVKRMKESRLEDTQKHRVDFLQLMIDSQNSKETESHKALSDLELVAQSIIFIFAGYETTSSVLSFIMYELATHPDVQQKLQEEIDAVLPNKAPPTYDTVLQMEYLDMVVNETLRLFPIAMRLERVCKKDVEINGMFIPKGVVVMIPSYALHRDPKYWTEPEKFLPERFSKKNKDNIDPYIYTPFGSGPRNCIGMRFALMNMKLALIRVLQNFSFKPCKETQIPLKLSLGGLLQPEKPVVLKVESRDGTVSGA

p-glycoprotein, sequence (P08183 whole entry): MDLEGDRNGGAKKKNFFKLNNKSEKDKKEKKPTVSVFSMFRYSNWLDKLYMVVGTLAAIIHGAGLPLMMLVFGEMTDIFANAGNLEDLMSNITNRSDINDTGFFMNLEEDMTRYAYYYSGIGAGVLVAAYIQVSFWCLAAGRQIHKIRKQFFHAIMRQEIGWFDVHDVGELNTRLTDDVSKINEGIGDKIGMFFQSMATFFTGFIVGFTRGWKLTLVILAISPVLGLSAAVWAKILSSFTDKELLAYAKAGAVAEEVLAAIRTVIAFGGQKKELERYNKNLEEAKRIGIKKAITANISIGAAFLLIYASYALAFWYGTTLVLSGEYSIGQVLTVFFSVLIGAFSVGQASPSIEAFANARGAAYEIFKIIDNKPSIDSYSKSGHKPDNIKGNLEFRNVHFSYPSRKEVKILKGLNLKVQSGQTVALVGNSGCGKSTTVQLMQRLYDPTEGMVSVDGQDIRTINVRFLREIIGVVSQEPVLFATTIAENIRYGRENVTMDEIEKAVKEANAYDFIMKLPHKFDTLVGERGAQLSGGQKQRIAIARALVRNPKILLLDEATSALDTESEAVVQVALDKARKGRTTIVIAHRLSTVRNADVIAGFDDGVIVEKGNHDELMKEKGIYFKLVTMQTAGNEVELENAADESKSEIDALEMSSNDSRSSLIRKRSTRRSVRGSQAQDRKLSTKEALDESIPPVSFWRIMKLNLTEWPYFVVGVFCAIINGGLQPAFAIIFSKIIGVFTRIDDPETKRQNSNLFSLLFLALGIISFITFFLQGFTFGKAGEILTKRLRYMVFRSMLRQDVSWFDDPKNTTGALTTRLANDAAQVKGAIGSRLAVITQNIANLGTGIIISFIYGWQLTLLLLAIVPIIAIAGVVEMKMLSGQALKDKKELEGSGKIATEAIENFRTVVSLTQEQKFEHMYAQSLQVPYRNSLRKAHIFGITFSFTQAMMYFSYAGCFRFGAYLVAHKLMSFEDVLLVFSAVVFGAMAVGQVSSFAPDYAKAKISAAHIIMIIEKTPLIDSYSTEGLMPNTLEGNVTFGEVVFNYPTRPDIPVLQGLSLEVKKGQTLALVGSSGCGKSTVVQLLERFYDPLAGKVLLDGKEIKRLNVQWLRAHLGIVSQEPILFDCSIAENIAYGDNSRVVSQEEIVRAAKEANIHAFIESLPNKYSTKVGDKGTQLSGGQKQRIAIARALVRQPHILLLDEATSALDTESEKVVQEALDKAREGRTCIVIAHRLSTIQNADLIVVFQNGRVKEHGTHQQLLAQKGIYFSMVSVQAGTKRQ

Structure (SMILES) | inhibition of p-glycoprotein (p-glycoprotein) | inhibition of CYP3A4 (CYP3A4) | solubility in HCl at pH 1.2 (HCl, pH 1.2) | solubility in N,N-dimethylformamide, tetrahydrofuran and dichloromethane (N,N-dimethylformamide, tetrahydrofuran, dichloromethane) | solubility in acetone and methanol (acetone, methanol) | solubility in ethyl acetate, ethanol and acetonitrile (ethyl acetate, ethanol, acetonitrile) | solubility in non-polar solvents (non-polar solvents such as hexane and heptanes) | solubility in water (water, ibrutinib base)
O=C(/C=C/C=C/c1ccc2c(c1)OCO2)N1CCCCC1 [Piperine, (E.E.) 1˜[5,3-benzodioxyl-5-yl)-1-oxo-2,4-pentadienyl-piperidine] | inhibits | inhibits |  |  |  |  |  | 
C=CC(=O)N1CCC[C@@H](n2nc(-c3ccc(Oc4ccccc4)cc3)c3c(N)ncnc32)C1 [Ibrutinib] |  |  | slightly soluble | freely soluble | soluble | sparingly soluble | practically insoluble | practically insoluble
